In one assay the test system is HT29 Colon Cancer. The assay is described as follows: MTT growth inhibition assay, HT29 Colon Cancer. It counts as cell-based. The settings on record: Homo sapiens, HT-29, HT29 Colon Cancer cells. The method, then:
(§1) Each of the following compounds was tested for growth inhibition in a MTT assay against B16 Murine Melanoma and HT29 Colon Cancer, reported as IC50(μM).
In general terms: Tetrazolium assays rely on reduction of a dye to a coloured formazan, in cell work by metabolically active cells.

For another assay, the system named is B16 Murine Melanoma. The assay is described as follows: MTT growth inhibition assay, B16 Murine Melanoma. It counts as cell-based. The settings on record: Mus musculus, B16 Murine Melanoma cells. The method, then:
as §1

In general, IC50 refers to the concentration that gives 50% inhibition. A higher IC50 goes with weaker potency. Turning to `O=c1cnnc(N/N=C/c2ccccc2O)[nH]1` [Compound I, benzaldehyde, 2-hydroxy-, (4-hydro-5-oxo-1,2,4-triazin-3-yl)hydrazide], the IC50 with HT29 Colon Cancer was determined as 7 nM; in the assay on B16 Murine Melanoma, 264 nM.

As to `Cc1nnc(N/N=C/c2ccccc2O)[nH]c1=O` [Compound II, benzaldehyde, 2-hydroxy-, (4-hydro-5-oxo-6-methyl-1,2,4-triazin-3-yl)hydrazide], the concentration for half-maximal inhibition (IC50) with HT29 Colon Cancer was 19 nM; in the assay on B16 Murine Melanoma it was 1100 nM.

The record behind these values is patent publication US6518269B1, “Cancer treatment” (University of Arizona Foundation, priority 2000, dated 2003).
